Assay results from publication PMC8622415, “Inhibitory Effect of Chlorogenic Acid Analogues Comprising Pyridine and Pyrimidine on α-MSH-Stimulated Melanogenesis and Stability of Acyl Analogues in Methanol” (Pharmaceuticals, 2021).
Where “and” joins values, the source holds several entries; their conditions need not be identical. Equal entries are not always repeated. Where two headings read alike, the source gives them in different places.

Assays:
B16 melanoma cells = test: Inhibition of α-MSH-stimulated melanin formation (melanin measurement); format: cell-based, Mouse; details: α-MSH 10.0 nM, melanin released into medium, absorbance 405 nm, read-out: IC50, inhibition of α-MSH-induced melanogenesis
Procedure: Mouse melanoma B16 cells were cultured in a 96-well culture plate (2.5 × 10^3 cells/well). Culture media were washed from each culture plates after 24 h and treated with freshly prepared 10% FBS-DMEM medium, various concentrations (such as 0.5, 1.0, 3.0, 10.0, 30.0, and 100.0 µM) of compound samples, and stimulants (α-MSH, 10.0 nM). Then, it was incubated at 37 °C for 72 h, and the amount of melanin released into the medium was determined by measuring the absorbance at wavelength of 405 nm using spectrophotometer (Molecular Device, San Jose, CA, USA). The absorbance of stimulated cells using α-MSH was used as a control, and the inhibition level was calculated by subtracting the absorbance values of cells that were not stimulated. The absorbance values were compared with standard curves obtained with synthetic melanin. The synthetic melanin (Sigma-Aldrich, St. Louis, MO, USA) was dissolved in 0.85 M KOH-10% DMSO solution; then, it was serially diluted with 10% FBS-DMEM medium and then aliquoted into a 96-well culture plate. Then, the absorbance of melanin was measured by a spectrophotometer at 405 nm, and a standard curve was prepared. Using this value, the amount of melanin released out of the cell was directly calculated. Results obtained by three or more sets of experiments were expressed as mean ± standard error.

[1] = Stability of CGA acyl analogues in methanol solution (HPLC); format: physicochemical; details: 25 °C
Procedure: The stability of the synthesized acyl analogues was measured in methanol, since the acetyl analogue of CGA was highly unstable in methanol solution. First, 10 mg of the sample was dissolved in 2 mL of methanol and stored at 25 °C. Then, purity was analyzed using HPLC (Shimadzu LC solution, Kyoto, Japan) for 28 days. The samples in methanol solution were diluted 10 times in the HPLC mobile phase ((A) 0.5% formic acid in H2O (B) 0.5% formic acid in acetonitrile (ACN), A/B = 20/80) and injected in HPLC column (inertsil ODS-3V C18 column (250 × 4.00 mm i.d; 5 μm)). Finally, the amount of acyl compound remaining in the solution was measured by calculating the area under the curve of the HPLC chromatogram, and the results were expressed in percentage units.

OC[C@H]1O[C@@H](Oc2ccc(O)cc2)[C@H](O)[C@@H](O)[C@@H]1O [Arbutin, reference compound]
IC50 (B16 melanoma cells; Mus musculus, B16, 72 h): 380 ± 9.5 µM

COc1ccc(-c2ccnc(NCc3ccccc3)c2)cc1OC [Compound 6a, N-Benzyl-4-(3,4-dimethoxyphenyl)pyridin-2-amine]
IC50 (B16 melanoma cells; Mus musculus, B16, 72 h): 17 ± 4 µM

COc1ccc(-c2ccnc(NCc3ccc(Cl)cc3)c2)cc1OC [Compound 6b, N-(4-Chlorobenzyl)-4-(3,4-dimethoxyphenyl)pyridin-2-amine]
IC50 (B16 melanoma cells; Mus musculus, B16, 72 h): 4.5 ± 0.7 µM

COc1ccc(-c2ccnc(NCc3cccc(Cl)c3)c2)cc1OC [Compound 6c, N-(3-Chlorobenzyl)-4-(3,4-dimethoxyphenyl)pyridin-2-amine]
IC50 (B16 melanoma cells; Mus musculus, B16, 72 h): 5 ± 1.4 µM

COc1ccc(-c2ccnc(NCc3ccccc3Cl)c2)cc1OC [Compound 6d, N-(2-Chlorobenzyl)-4-(3,4-dimethoxyphenyl)pyridin-2-amine]
IC50 (B16 melanoma cells; Mus musculus, B16, 72 h): 8.5 ± 0.7 µM | IC50 (B16 melanoma cells; 72 h): 8 ± 1 µM

COc1ccc(-c2ccnc(NCc3ccc(C(F)(F)F)cc3)c2)cc1OC [Compound 6e, 4-(3,4-Dimethoxyphenyl)-N-(4-(trifluoromethyl)benzyl)pyridin-2-amine]
IC50 (B16 melanoma cells; Mus musculus, B16, 72 h): 8.5 ± 0.7 µM

COc1ccc(-c2ccnc(NCc3cccc(C(F)(F)F)c3)c2)cc1OC [Compound 6f, 4-(3,4-Dimethoxyphenyl)-N-(3-(trifluoromethyl)benzyl)pyridin-2-amine]
IC50 (B16 melanoma cells; Mus musculus, B16, 72 h): 2.5 ± 0.7 µM

COc1ccc(-c2ccnc(NCc3ccccc3C(F)(F)F)c2)cc1OC [Compound 6g, 4-(3,4-Dimethoxyphenyl)-N-(2-(trifluoromethyl)benzyl)pyridin-2-amine]
IC50 (B16 melanoma cells; Mus musculus, B16, 72 h): 7.5 ± 0.7 µM

COc1ccc(-c2ccnc(NCc3ccccc3)n2)cc1OC [Compound 10a, N-Benzyl-4-(3,4-dimethoxyphenyl)pyrimidin-2-amine]
IC50 (B16 melanoma cells; Mus musculus, B16, 72 h): > 100 µM

COc1ccc(-c2ccnc(NCc3ccc(Cl)cc3)n2)cc1OC [Compound 10b, N-(4-Chlorobenzyl)-4-(3,4-dimethoxyphenyl)pyrimidin-2-amine]
IC50 (B16 melanoma cells; Mus musculus, B16, 72 h): 54 ± 6 µM

COc1ccc(-c2ccnc(NCc3cccc(Cl)c3)n2)cc1OC [Compound 10c, N-(3-Chlorobenzyl)-4-(3,4-dimethoxyphenyl)pyrimidin-2-amine]
IC50 (B16 melanoma cells; Mus musculus, B16, 72 h): 32 ± 2 µM

COc1ccc(-c2ccnc(NCc3ccccc3Cl)n2)cc1OC [Compound 10d, N-(2-Chlorobenzyl)-4-(3,4-dimethoxyphenyl)pyrimidin-2-amine]
IC50 (B16 melanoma cells; Mus musculus, B16, 72 h): 40 ± 8 µM

COc1ccc(-c2ccnc(NCc3ccc(C(F)(F)F)cc3)n2)cc1OC [Compound 10e, 4-(3,4-Dimethoxyphenyl)-N-(4-(trifluoromethyl)benzyl)pyrimidin-2-amine]
IC50 (B16 melanoma cells; Mus musculus, B16, 72 h): > 100 µM

COc1ccc(-c2ccnc(NCc3cccc(C(F)(F)F)c3)n2)cc1OC [Compound 10f, 4-(3,4-Dimethoxyphenyl)-N-(3-(trifluoromethyl)benzyl)pyrimidin-2-amine]
IC50 (B16 melanoma cells; Mus musculus, B16, 72 h): 20 ± 1 µM

CCCC(=O)Oc1ccc(/C=C/C(=O)OC2CCCCC2)cc1OC(=O)CCC [Compound 13a, (E)-4-(3-(Cyclohexyloxy)-3-oxoprop-1-en-1-yl)-1,2-phenylene dibutyrate]
Amount remaining in methanol (HPLC area) ([1]; day 0): 99.3294% | Amount remaining in methanol (HPLC area) ([1]; day 1): 91.3520% | Amount remaining in methanol (HPLC area) ([1]; day 2): 85.3800% | Amount remaining in methanol (HPLC area) ([1]; day 3): 80.3685% | Amount remaining in methanol (HPLC area) ([1]; day 4): 75.4921% | Amount remaining in methanol (HPLC area) ([1]; day 5): 72.147% | Amount remaining in methanol (HPLC area) ([1]; day 7): 64.7751% | Amount remaining in methanol (HPLC area) ([1]; day 9): 59.4842% | Amount remaining in methanol (HPLC area) ([1]; day 11): 55.1819% | Amount remaining in methanol (HPLC area) ([1]; day 21): 43.3505% | Amount remaining in methanol (HPLC area) ([1]; day 28): 39% and 39.0229% | IC50 (B16 melanoma cells; Mus musculus, B16, 72 h): 1.1 ± 0.1 µM | IC50 (B16 melanoma cells; 72 h): 1 ± 0.1 µM

CCCCCC(=O)Oc1ccc(/C=C/C(=O)OC2CCCCC2)cc1OC(=O)CCCCC [Compound 13b, (E)-4-(3-(Cyclohexyloxy)-3-oxoprop-1-en-1-yl)-1,2-phenylene dihexanoate]
Amount remaining in methanol (HPLC area) ([1]; day 0): 99.8006% | Amount remaining in methanol (HPLC area) ([1]; day 1): 93.7356% | Amount remaining in methanol (HPLC area) ([1]; day 2): 89.9637% | Amount remaining in methanol (HPLC area) ([1]; day 3): 86.8066% | Amount remaining in methanol (HPLC area) ([1]; day 4): 83.9188% | Amount remaining in methanol (HPLC area) ([1]; day 5): 82.1086% | Amount remaining in methanol (HPLC area) ([1]; day 7): 77.5962% | Amount remaining in methanol (HPLC area) ([1]; day 9): 74.0389% | Amount remaining in methanol (HPLC area) ([1]; day 11): 70.6843% | Amount remaining in methanol (HPLC area) ([1]; day 21): 58.4127% | Amount remaining in methanol (HPLC area) ([1]; day 28): 52% and 52.5500% | IC50 (B16 melanoma cells; Mus musculus, B16, 72 h): 1.3 ± 0.4 µM

CC(C)(C)C(=O)Oc1ccc(/C=C/C(=O)OC2CCCCC2)cc1OC(=O)C(C)(C)C [Compound 13c, (E)-4-(3-(Cyclohexyloxy)-3-oxoprop-1-en-1-yl)-1,2-phenylene bis(2,2-dimethylpropanoate)]
Amount remaining in methanol (HPLC area) ([1]; day 0): 99.5492% | Amount remaining in methanol (HPLC area) ([1]; day 1): 99.3034% | Amount remaining in methanol (HPLC area) ([1]; day 2): 99.1518% | Amount remaining in methanol (HPLC area) ([1]; day 3): 99.0038% | Amount remaining in methanol (HPLC area) ([1]; day 4): 98.8061% | Amount remaining in methanol (HPLC area) ([1]; day 5): 98.5395% | Amount remaining in methanol (HPLC area) ([1]; day 7): 97.9332% | Amount remaining in methanol (HPLC area) ([1]; day 9): 97.4173% | Amount remaining in methanol (HPLC area) ([1]; day 11): 96.8033% | Amount remaining in methanol (HPLC area) ([1]; day 21): 95.0243% | Amount remaining in methanol (HPLC area) ([1]; day 28): 94% and 94.0833% | IC50 (B16 melanoma cells; Mus musculus, B16, 72 h): 1.9 ± 0.1 µM

O=C(/C=C/c1ccc(OC(=O)C2CCCCC2)c(OC(=O)C2CCCCC2)c1)OC1CCCCC1 [Compound 13d, (E)-4-(3-(Cyclohexyloxy)-3-oxoprop-1-en-1-yl)-1,2-phenylene dicyclohexanecarboxylate]
Amount remaining in methanol (HPLC area) ([1]; day 0): 98.9750% | Amount remaining in methanol (HPLC area) ([1]; day 1): 96.9973% | Amount remaining in methanol (HPLC area) ([1]; day 2): 95.8267% | Amount remaining in methanol (HPLC area) ([1]; day 3): 94.6557% | Amount remaining in methanol (HPLC area) ([1]; day 4): 93.5713% | Amount remaining in methanol (HPLC area) ([1]; day 5): 93.0573% | Amount remaining in methanol (HPLC area) ([1]; day 7): 91.6229% | Amount remaining in methanol (HPLC area) ([1]; day 9): 90.6724% | Amount remaining in methanol (HPLC area) ([1]; day 11): 89.8768% | Amount remaining in methanol (HPLC area) ([1]; day 21): 87.5571% | IC50 (B16 melanoma cells; Mus musculus, B16, 72 h): 2.3 ± 0.2 µM

CC(C)COc1ccc(/C=C/C(=O)OC2CCCCC2)cc1OCC(C)C [Compound 15, (E)-Cyclohexyl 3-(3,4-diisobutoxyphenyl)acrylate]
IC50 (B16 melanoma cells; Mus musculus, B16, 72 h): > 100 µM

COc1ccc(/C=C/C(=O)OC2CCCCC2)cc1OC [Compound 17, (E)-Cyclohexyl 3-(3,4-dimethoxyphenyl)acrylate]
IC50 (B16 melanoma cells; Mus musculus, B16, 72 h): > 100 µM

CC(=O)Oc1ccc(/C=C/C(=O)OC2CCCCC2)cc1OC(C)=O [Compound 18]
Amount remaining in methanol (HPLC area) ([1]; day 0): 99.5029% | Amount remaining in methanol (HPLC area) ([1]; day 1): 71.1918% | Amount remaining in methanol (HPLC area) ([1]; day 2): 55.5162% | Amount remaining in methanol (HPLC area) ([1]; day 3): 43.5699% | Amount remaining in methanol (HPLC area) ([1]; day 4): 33.7154% | Amount remaining in methanol (HPLC area) ([1]; day 5): 27.3752% | Amount remaining in methanol (HPLC area) ([1]; day 7): 16.5047% | Amount remaining in methanol (HPLC area) ([1]; day 9): 10.5572% | Amount remaining in methanol (HPLC area) ([1]; day 11): 6.9200% | Amount remaining in methanol (HPLC area) ([1]; day 21): 1.4408% | Amount decomposed in methanol solution ([1]; within 10 days, HPLC): more than 90%

O=c1cc(CO)occ1O [Kojic acid, reference compound]
IC50 (B16 melanoma cells; Mus musculus, B16, 72 h): 54 ± 1.5 µM
